ChEMBL document CHEMBL1201862, “PubChem BioAssay data set” (2004)
The source made the active and inactive calls.

Tests used:
Phospholipase A2 = Phospholipase A2 (Homo sapiens, UniProt P04054); assay type: functional;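 note: confirmatory dose-response counterscreen on phospholipase A2, testing hits that came from an ultra-high-throughput screen for ATG4B inhibitors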
Caspase-3 = target: T1, Caspase-3 (Homo sapiens, UniProt P42574); assay type: functional;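 note: Dose-response selectivity test against caspase-3 for candidate inhibitors of sentrin-specific proteases (SENPs)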
T1 sequence (P42574 whole entry): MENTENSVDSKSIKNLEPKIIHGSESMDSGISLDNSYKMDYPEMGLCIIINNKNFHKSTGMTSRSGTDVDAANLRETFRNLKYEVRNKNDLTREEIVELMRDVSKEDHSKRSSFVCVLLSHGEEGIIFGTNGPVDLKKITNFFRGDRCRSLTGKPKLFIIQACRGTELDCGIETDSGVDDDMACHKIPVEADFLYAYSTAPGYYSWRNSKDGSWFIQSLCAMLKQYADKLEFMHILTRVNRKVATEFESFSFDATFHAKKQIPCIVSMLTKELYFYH

[1] = target: T2, Sentrin-specific protease 7 (Homo sapiens, UniProt Q9BQF6); assay type: functional;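 note: Luminescence-based dose-response confirmation of ultra-high-throughput screening hits, measuring inhibition of SENP7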
T2 sequence (Q9BQF6 whole entry): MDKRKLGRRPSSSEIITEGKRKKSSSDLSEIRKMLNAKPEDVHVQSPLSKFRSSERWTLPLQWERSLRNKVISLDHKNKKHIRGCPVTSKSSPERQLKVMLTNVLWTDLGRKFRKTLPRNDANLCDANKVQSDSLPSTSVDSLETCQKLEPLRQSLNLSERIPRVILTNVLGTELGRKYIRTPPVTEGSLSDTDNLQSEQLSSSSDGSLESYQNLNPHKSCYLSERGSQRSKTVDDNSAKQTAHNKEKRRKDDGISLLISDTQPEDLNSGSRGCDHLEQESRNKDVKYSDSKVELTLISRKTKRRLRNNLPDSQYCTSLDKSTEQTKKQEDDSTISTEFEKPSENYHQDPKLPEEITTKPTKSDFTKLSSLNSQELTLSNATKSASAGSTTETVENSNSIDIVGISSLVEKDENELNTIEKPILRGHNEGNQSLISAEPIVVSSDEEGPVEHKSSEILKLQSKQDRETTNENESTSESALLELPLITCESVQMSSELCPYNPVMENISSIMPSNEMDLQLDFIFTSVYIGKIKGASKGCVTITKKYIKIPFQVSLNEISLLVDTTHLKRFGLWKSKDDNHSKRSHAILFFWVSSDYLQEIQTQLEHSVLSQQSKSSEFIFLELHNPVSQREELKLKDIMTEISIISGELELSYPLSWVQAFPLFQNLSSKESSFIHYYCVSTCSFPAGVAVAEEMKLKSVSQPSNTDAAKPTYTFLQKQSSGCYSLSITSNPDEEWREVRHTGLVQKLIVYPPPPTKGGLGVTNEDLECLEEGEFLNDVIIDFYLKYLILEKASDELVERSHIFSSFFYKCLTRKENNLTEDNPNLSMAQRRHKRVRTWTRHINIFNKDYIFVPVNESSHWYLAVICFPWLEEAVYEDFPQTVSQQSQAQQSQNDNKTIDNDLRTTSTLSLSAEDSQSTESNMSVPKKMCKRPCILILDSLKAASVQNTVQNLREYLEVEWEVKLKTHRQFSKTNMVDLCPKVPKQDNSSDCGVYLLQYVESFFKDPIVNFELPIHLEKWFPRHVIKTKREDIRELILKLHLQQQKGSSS

[2] = target: T3, Sentrin-specific protease 6 (Homo sapiens, UniProt Q9GZR1); assay type: functional;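 note: Luminescence-based dose-response confirmatory assay of SENP6 inhibition, following up an ultra-high-throughput screen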
T3 sequence (Q9GZR1 whole entry): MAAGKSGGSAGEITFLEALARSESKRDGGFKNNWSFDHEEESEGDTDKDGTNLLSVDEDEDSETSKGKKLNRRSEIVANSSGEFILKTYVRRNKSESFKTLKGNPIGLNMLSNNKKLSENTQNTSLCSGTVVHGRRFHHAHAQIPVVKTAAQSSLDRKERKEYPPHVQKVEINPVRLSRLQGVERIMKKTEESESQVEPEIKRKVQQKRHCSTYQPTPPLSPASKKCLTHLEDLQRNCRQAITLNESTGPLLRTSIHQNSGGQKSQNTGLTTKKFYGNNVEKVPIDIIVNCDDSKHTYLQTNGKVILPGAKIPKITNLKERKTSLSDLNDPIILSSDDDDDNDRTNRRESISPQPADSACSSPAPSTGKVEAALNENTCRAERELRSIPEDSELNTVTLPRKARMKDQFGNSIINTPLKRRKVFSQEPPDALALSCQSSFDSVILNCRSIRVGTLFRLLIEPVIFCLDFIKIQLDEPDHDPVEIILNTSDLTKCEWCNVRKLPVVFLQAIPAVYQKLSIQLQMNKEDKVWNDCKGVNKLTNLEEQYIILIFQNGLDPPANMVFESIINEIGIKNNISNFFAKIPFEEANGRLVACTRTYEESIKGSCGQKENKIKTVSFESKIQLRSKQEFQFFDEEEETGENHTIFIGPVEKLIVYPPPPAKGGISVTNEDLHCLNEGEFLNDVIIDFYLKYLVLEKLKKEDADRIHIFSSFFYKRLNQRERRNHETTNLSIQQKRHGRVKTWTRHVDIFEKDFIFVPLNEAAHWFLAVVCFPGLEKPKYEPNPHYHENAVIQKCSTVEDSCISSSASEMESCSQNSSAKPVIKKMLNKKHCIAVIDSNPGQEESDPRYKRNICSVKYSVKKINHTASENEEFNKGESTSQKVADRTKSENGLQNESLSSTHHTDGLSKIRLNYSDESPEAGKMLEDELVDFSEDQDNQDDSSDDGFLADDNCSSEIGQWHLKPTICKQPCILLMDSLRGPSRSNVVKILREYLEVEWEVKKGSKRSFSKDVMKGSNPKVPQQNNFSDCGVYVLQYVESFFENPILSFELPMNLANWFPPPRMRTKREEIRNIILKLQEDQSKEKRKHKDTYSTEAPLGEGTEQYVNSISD

[3] = target: T4, Sentrin-specific protease 8 (Homo sapiens, UniProt Q96LD8); assay type: functional;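 note: luminescence read-out of SENP8 inhibition, dose-response confirmation following an ultra-high-throughput screen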
T4 sequence (Q96LD8 whole entry): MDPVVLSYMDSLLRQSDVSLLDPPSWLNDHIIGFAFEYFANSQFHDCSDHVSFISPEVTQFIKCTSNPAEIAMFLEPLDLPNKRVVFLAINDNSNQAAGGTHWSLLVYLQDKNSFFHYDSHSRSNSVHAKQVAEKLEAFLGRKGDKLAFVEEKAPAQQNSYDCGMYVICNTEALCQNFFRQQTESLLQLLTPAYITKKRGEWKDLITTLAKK

[4] = Luminescence Cell-Based Dose Response HTS to Identify Inhibitors of 5'UTR Stem-Loop Driven Prion Protein mRNA Translation in H4 Neuroglioblastoma Cells. [Related pubchem assays: 1827 (Project Summary), 1813 (Primary HTS)]; assay type: functional
[5] = inhibitors of SNCA 5'UTR-driven reporter translation, confirmation, H4 neuroglioma cells, luminescence (AID 1988); assay type: functional, cell-based
HEK293 = assay: inhibitors of LMP1-driven NF-kB reporter, dose response, cell-based, HEK293, luciferase, cherry-pick (AID 588343); assay type: functional, Homo sapiens
[6] = target: T5, Latent membrane protein 1 (Human herpesvirus 4 (strain B95-8), UniProt P03230); assay: TES1-eGFP NF-kB reporter inhibition versus Tet-On dsRED, dose response, selectivity assay for LMP1 NF-kB inhibitor project, imaging, HEK293T, dual-color eGFP/dsRED, cherry-picks (AID 588398); assay type: functional, cell-based
T5 sequence (P03230 whole entry): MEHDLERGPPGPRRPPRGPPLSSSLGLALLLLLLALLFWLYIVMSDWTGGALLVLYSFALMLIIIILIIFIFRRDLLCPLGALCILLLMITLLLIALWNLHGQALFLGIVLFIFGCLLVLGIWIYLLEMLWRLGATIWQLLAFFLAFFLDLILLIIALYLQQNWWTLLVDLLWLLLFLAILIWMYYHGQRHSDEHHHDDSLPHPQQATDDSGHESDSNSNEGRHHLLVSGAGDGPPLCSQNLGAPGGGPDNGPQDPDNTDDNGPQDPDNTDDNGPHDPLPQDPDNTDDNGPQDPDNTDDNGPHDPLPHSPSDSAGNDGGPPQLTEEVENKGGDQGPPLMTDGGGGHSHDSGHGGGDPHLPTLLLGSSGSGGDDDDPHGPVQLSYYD

[7] = inhibitors of firefly luciferase expression or activity, dose response, H4 neuroglioma cells, luminescence (AID 1990); assay type: functional, cell-based
Interleukin-8 [8] = target: T6, Interleukin-8 (Homo sapiens, UniProt P10145); assay: Dose Response confirmation of uHTS small molecule hits for cystic fibrosis induced NFkb Inhibitors in a TNFa-induced IL8 counterscreen.; assay type: functional; details: read-out: IC50_Mean
T6 sequence (P10145 whole entry): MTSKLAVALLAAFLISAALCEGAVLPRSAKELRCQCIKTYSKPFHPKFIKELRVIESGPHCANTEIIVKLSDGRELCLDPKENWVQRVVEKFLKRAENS

Interleukin-8 [9] = target: T6, Interleukin-8; assay: Dose Response confirmation of uHTS small molecule hits for cystic fibrosis induced NFkb Inhibitors in a PAF-induced IL8 counterscreen.; assay type: functional; details: read-out: IC50_Mean
[10] = target: T7, Mitochondrial peptide methionine sulfoxide reductase (Bos taurus, UniProt P54149); assay type: functional;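 note: absorbance read-out, biochemical high-throughput dose-response screen for MsrA inhibitors, confirmatory; recombinant bovine MsrA coupled to E. coli TrxB with NADPH and selenocystamine; potency is for inhibitors of MsrA activity on DMSO substrate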
T7 sequence (P54149 whole entry): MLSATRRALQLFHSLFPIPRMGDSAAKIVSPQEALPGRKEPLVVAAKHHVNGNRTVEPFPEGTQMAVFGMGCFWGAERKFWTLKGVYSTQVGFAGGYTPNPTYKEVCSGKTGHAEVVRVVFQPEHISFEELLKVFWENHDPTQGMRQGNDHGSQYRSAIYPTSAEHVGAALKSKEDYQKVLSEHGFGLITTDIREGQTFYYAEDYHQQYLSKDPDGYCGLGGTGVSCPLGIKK

Aminopeptidase N = target: T8, Aminopeptidase N (Plasmodium falciparum FcB1/Columbia, UniProt O96935); assay: P. falciparum M1AAP inhibitors, biochemical, fluorogenic H-Leu-NHMec substrate, 1536-well (AID 1445); parameters: species or system Plasmodium falciparum 3D7, 3D7
T8 sequence (O96935 whole entry): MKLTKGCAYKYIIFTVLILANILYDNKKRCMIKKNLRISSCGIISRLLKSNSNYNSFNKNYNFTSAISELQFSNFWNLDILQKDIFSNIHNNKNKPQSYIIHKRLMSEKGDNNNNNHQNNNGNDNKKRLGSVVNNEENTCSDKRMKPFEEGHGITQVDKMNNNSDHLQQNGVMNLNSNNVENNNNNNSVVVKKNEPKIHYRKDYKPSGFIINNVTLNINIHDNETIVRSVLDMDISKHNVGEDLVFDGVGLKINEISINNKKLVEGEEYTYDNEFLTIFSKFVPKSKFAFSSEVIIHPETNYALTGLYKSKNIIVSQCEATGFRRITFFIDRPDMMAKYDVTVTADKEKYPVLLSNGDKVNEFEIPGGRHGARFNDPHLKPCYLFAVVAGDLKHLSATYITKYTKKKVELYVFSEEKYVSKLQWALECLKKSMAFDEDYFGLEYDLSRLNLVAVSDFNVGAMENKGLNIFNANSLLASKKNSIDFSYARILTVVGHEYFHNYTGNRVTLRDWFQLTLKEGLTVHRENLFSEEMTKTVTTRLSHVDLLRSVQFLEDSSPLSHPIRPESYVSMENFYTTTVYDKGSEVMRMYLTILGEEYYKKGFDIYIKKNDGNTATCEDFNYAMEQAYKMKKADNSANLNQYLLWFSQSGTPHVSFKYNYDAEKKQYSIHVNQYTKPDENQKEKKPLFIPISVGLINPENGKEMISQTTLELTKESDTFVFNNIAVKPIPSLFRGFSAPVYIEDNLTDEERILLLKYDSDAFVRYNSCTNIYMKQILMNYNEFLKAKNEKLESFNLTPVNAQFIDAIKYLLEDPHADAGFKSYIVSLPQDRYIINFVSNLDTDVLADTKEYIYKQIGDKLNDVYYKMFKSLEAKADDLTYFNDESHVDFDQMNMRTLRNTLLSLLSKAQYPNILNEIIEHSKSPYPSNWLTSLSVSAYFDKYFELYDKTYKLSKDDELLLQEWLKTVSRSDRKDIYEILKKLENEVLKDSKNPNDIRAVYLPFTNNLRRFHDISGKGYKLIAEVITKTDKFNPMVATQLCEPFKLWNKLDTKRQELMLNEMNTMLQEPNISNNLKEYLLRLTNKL

Phospholipase A2, sequence (P04054 whole entry): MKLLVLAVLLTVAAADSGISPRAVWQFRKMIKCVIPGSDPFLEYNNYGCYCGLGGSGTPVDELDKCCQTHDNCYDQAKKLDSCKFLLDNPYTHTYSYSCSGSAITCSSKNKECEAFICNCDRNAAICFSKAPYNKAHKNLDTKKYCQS

CC(C)(C)C(=O)CSc1ncnc2sc3c(c12)CCC3
IC50 (Phospholipase A2): 2.59 µM (active)

CC(C)C(=O)Nc1ccc2nn(-c3ccccc3)nc2c1
IC50 (Caspase-3): 26.7 µM (active) | IC50 [1]: 8.73 µM (active) | IC50 [2]: > 100 µM (inactive) | IC50 [3]: > 100 µM (inactive)

c1ccc(-c2cn3c4c(sc3n2)CCCC4)cc1
EC50 [4]: 6.75 µM (active) | EC50 [5]: 6.38 µM (active) | AC50 (HEK293; hek293): 2.07 µM (active) | AC50 [6]: 47.1 µM (active)

N#CC1=C(N)N2C(=C(C#N)C1c1cccc(Br)c1)Nc1ccccc12 (stereo not given)
EC50 [7]: 11.3 µM (active) | EC50 [4]: 14.6 µM (active) | EC50 [5]: 12.9 µM (active) | AC50 (HEK293; Homo sapiens, HEK293): 3.62 µM (active) | AC50 [6]: 54 µM (active)

Cc1ccccc1-c1nc2cc(Cl)ccc2o1
IC50 (Caspase-3): 12.9 µM (active) | IC50 [1]: 4.69 µM (active) | IC50 [2]: 13.7 µM (active) | IC50 [3]: 79.7 µM (active)

O=C1C=C(NC2=CC3OC(c4ccccc4)OCC3OC2=O)CCC1 (stereo not given)
IC50 (Interleukin-8 [8]): 1.07 µM (active) | IC50 (Interleukin-8 [9]): 1.5 µM (active)

CCOP(=O)(Nc1ccc2c(c1)C(=NNC(N)=S)c1ccccc1-2)OCC
IC50 [10]: 95.9 µM (inactive)

O=Cc1cc(OCc2ccccc2)ccc1[B-](F)(F)F
AC50 (HEK293; Homo sapiens, HEK293): 2.86 µM (active) | AC50 [6]: 1.14 µM (active)

COCc1cc(C)n(CC(=O)N/N=C/c2ccc(-c3ccc(Cl)c(C(=O)O)c3)o2)c(=O)c1C#N
IC50 (Aminopeptidase N): 24.7 µM (active) | IC50 [10]: 99.4 µM (inactive)
